Laboratory results: PubChem BioAssay AID588566 (The Scripps Research Institute Molecular Screening Center, 2011)
pIC50: −log10 of the molar value.

target: Neuropeptides B/W receptor type 1 (Homo sapiens) (UniProt P48145); test: GPR7 antagonist potency, late-stage follow-up, cell-based, fluorescence, dose response, set 5 (AID 588566); settings: GPR7-expressing cells, fluorescence antagonist assay
Sequence (P48145 whole entry, looked up): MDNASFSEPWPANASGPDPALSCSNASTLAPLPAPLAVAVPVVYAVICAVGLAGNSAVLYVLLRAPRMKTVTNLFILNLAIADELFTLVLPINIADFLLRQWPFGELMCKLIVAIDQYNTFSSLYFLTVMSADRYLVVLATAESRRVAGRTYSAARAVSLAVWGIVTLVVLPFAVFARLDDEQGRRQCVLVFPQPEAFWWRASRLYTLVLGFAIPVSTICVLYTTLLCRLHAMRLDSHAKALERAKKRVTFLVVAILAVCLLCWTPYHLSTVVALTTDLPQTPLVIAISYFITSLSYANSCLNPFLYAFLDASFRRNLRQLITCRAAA

Row | SMILES | pIC50
1 | O=c1c(Oc2ccc3c(c2)CCC3)c(Cl)cnn1Cc1cccc2ccccc12 | 6.08
2 | COc1cc(Oc2c(Cl)cnn(Cc3cccc4ccccc34)c2=O)cc(OC)c1OC | 5.75
3 | COc1ccc(Oc2c(Cl)cnn(C3=Nc4cc(Cl)ccc4Oc4ncccc43)c2=O)cc1 | 6.28
4 | COc1ccc(Oc2c(Cl)cnn(C3c4ccccc4Oc4ccccc43)c2=O)cc1 | 5.51
5 | CCc1cccc(Oc2c(Cl)cnn(Cc3cccc4ccccc34)c2=O)c1 | 5.07
6 | COc1ccc(Oc2c(Cl)cnn(-c3nc4ccccc4c(=O)c4ccccc34)c2=O)cc1 | 5.66
